Reference: US20230346827A1 (priority 2020, published 2023)
Marks after values point to notes of the source that are not given here.

Tested on: rats subjected to sTBI
Experiment: sTBI rats, LMW-DS 15 mg/kg s.c.: HPLC of brain purine-pyrimidine/energy metabolites (Example 3)
Assay type: in vivo, rat
Method: The experimental protocol used in this study was approved by the Ethical Committee of the Catholic University of Rome, according to international standards and guidelines for animal care. Male Wistar rats of 300-350 g body weight (b.w.) were fed with standard laboratory diet and water ad libitum in a controlled environment.
They were divided into three groups: • 1) n = 6 animals subjected to sTBI, with drug administration after 30 minutes and sacrifice at 2 days post-TBI (Acute phase 1) • 2) n= 6 animals subjected to sTBI, with drug administration after 30 minutes and sacrifice at 7 days post-TBI (Acute phase 2). • 3) n= 6 animals subjected to sTBI, with drug administration after 3 days and sacrifice at 7 days post-TBI (Chronic phase).
As the anesthetic mixture, animals received 35 mg/kg b.w. ketamine and 0.25 mg/kg b.w. midazolam by i.p. injection. sTBI was induced by dropping a 450 g weight from 2 m height on to the rat head that had been protected by a metal disk previously fixed on the skull, according to the “weight drop” impact acceleration model (Marmarou et al., J Neurosurg. 1994; 80: 291-300). […] At the end of each period of treatment, rats were anesthetized again and then immediately sacrificed.
The drug treatment was a subcutaneous injection of 0.5 ml of LMW-DS (ILB®, Tikomed AB, Viken, Sweden, WO 2016/076780; 15 mg/kg) and administered according to the aforementioned schematic protocol.
An in vivo craniectomy was performed in all animals during anesthesia, after carefully removing the rat’s skull, the brain was exposed and removed with a surgical spatula and quickly dropped in liquid nitrogen. After the wet weight (w.w.) determination, tissue preparation was affected as previously disclosed (Tavazzi et al., Neurosurgery. 2005; 56: 582-589; Vagnozzi et al., Neurosurgery. 2007; 61: 379-388; Tavazzi et al., Neurosurgery. 2007; 61: 390-395; Amorini et al., J Cell Mol Med. 2017; 21: 530-542.). Briefly, whole brain homogenization was performed with 7 ml of ice-cold, nitrogen-saturated, precipitating solution composed by CH3CN + 10 mM KH2PO4, pH 7.40, (3:1; v:v), and using an Ultra-Turrax set at 24,000 rpm/min (Janke & Kunkel, Staufen, Germany). After centrifugation at 20,690 x g, for 10 min at 4° C., the clear supernatants were saved, pellets were supplemented with 3 ml of the precipitating solution and homogenized again as described above. A second centrifugation was performed (20,690 x g, for 10 min at 4° C.), pellets were saved, supernatants combined with those previously obtained, extracted by vigorous agitation with a double volume of HPLC-grade CHCl3 and centrifuged as above. The upper aqueous phases containing water-soluble low-molecular weight compounds were collected, subjected to chloroform washings for two more times (this procedure allowed the removal of all the organic solvent and of any lipid soluble compound from the buffered tissue extracts), adjusted in volumes with 10 mM KH2PO4, pH 7.40, to have ultimately aqueous 10% tissue homogenates and saved at -80° C. until assayed.
Aliquots of each deproteinized tissue samples were filtered through a 0.45 µm HV Millipore filter and loaded (200 µl) onto a Hypersil C-18, 250 × 4.6 mm, 5 µm particle size column, provided with its own guard column (Thermo Fisher Scientific, Rodano, Milan, Italy) and connected to an HPLC apparatus consisting of a Surveyor System (Thermo Fisher Scientific, Rodano, Milan, Italy) with a highly sensitive diode array detector (equipped with a 5 cm light path flow cell) and set up between 200 and 300 nm wavelength. Data acquisition and analysis were performed by a PC using the ChromQuest® software package provided by the HPLC manufacturer. […]

[1] = Acute phase 1: drug 30 min, sacrifice 2 d post-TBI
[2] = Acute phase 2: drug 30 min, sacrifice 7 d post-TBI
[3] = Chronic phase: drug 3 d, sacrifice 7 d post-TBI
[4] = after administration of LMW-DS 15 mg/kg

## sodium salt of dextran sulfate [LMW-DS]
[1]
  ASCORBIC ACID: 3733.10±277.88^a,d nmol/g (w.w.)
  CDP choline: 10.93±3.22^b,h nmol/g (w.w.)
  CMP: 30.12±9.97^a,h nmol/g (w.w.)
  CREATININE: 24.55±3.20^b,g,i nmol/g (w.w.)
  CYTIDINE: 15.40 ± 3.04 nmol/g (w.w.)
  CYTOSINE: 17.69±2.50^b,d nmol/g (w.w.)
  GSH: 2649.50±397.31^a,d nmol/g (w.w.)
  GUANINE: 4.80±1.24^b nmol/g (w.w.)
  GUANOSINE: 20.71 ± 5.66 nmol/g (w.w.)
  HYPOXANTHINE: 14.47±2.87^a nmol/g (w.w.)
  INOSINE: 92.55±31.20^c nmol/g (w.w.)
  MDA: 12.47±2.09^a,c,g nmol/g (w.w.)
  NO2: 216.03±41.74^a nmol/g (w.w.)
  URACIL: 14.56 ± 5.44 nmol/g (w.w.)
  URIC ACID: 23.62±3.77^a,d,h nmol/g (w.w.)
  URIDINE: 76.35±12.85^a,c nmol/g (w.w.)
  XANTHINE: 9.46±2.34^d nmol/g (w.w.)
  adenine: 44.82±6.31 ^a,d,g nmol/g (w.w.)
  thymidine: 0.69 ± 0.11 nmol/g (w.w.)
  β-PSEUDOURIDINE: 6.65±1.30^g,i nmol/g (w.w.)
[2]
  ASCORBIC ACID: 3512.58±224.62^a,e nmol/g (w.w.)
  CDP choline: 6.91 ± 1.86 nmol/g (w.w.)
  CMP: 15.68±2.12^f,j nmol/g (w.w.)
  CREATININE: 37.27±5.82^a,e,j nmol/g (w.w.)
  CYTIDINE: 16.18±4.21^e nmol/g (w.w.)
  CYTOSINE: 15.70±4.10^f nmol/g (w.w.)
  GSH: 2821.50±242.82^a,e nmol/g (w.w.)
  GUANINE: 4.73 ± 1.07 nmol/g (w.w.)
  GUANOSINE: 17.90±3.24^j nmol/g (w.w.)
  HYPOXANTHINE: 12.90±2.58^a,j nmol/g (w.w.)
  INOSINE: 85.52±20.36^e nmol/g (w.w.)
  MDA: 4.82±1.73^a,e,i nmol/g (w.w.)
  NO2: 226.40±30.95^b nmol/g (w.w.)
  URACIL: 19.40±7.52^a,e nmol/g (w.w.)
  URIC ACID: 19.17±2.15^a,h,i nmol/g (w.w.)
  URIDINE: 63.02±9.66^b,e nmol/g (w.w.)
  XANTHINE: 10.41±2.11^f nmol/g (w.w.)
  adenine: 58.16±6.36^a,f nmol/g (w.w.)
  thymidine: 0.49±0.20^f nmol/g (w.w.)
  β-PSEUDOURIDINE: 13.26±3.16^a,e,j nmol/g (w.w.)
[3]
  ASCORBIC ACID: 3375.03±856.41 ^a,e nmol/g (w.w.)
  CDP choline: 8.37 ± 2.19 nmol/g (w.w.)
  CMP: 20.51±3.73^a,f nmol/g (w.w.)
  CREATININE: 51.25±10.17^a,f nmol/g (w.w.)
  CYTIDINE: 14.71±2.83^e nmol/g (w.w.)
  CYTOSINE: 15.58±2.50^b,f nmol/g (w.w.)
  GSH: 2608.67±358.07^a,e nmol/g (w.w.)
  GUANINE: 5.31±1.04^b nmol/g (w.w.)
  GUANOSINE: 28.87±7.60^a,f nmol/g (w.w.)
  HYPOXANTHINE: 17.97±4.49^a nmol/g (w.w.)
  INOSINE: 105.81±25.57^f nmol/g (w.w.)
  MDA: 11.62±3.90^a,e nmol/g (w.w.)
  NO2: 217.67±55.04^a nmol/g (w.w.)
  URACIL: 16.57±2.99^a f nmol/g (w.w.)
  URIC ACID: 27.77±3.60^a nmol/g (w.w.)
  URIDINE: 63.28±3.37^f nmol/g (w.w.)
  XANTHINE: 9.35±0.83^f nmol/g (w.w.)
  adenine: 52.94±8.59^a,f nmol/g (w.w.)
  thymidine: 0.71 ± 0.11 nmol/g (w.w.)
  β-PSEUDOURIDINE: 18.62±2.80^a nmol/g (w.w.)
Acute and chronic phases of sTBI
  nitrate concentrations: significantly decreased
[4]
  MDA levels: significant reduction
  ascorbic acid and GSH levels: significant improvement
After sTBI, LMW-DS 15 mg/kg
  NAA and its substrates, levels: significant improvements
